# Source: patent publication US20120207743A1 (priority 2011, published 2012)
# Tested on: DU-145 cells
# Format: cell-based, Human
smiles,measurement,value
C=C1[C@@H](C)[C@H]2[C@H](Cc3ccccc3)NC(=O)[C@]23[C@H](OC(C)=O)/C=C/[C@@](C)(O)C(=O)[C@@H](C)C/C=C/[C@H]3[C@@H]1O [Cytochalasin-D],Reduction in cell migration compared to cells treated with media alone,did not migrate
same,"Relative Wound Density at 24 Hours, Mean",3.3 ± 0.2
same,"Relative Wound Density at 24 Hours, Percent Relative to Media",4%
